# Test results from PubChem BioAssay AID602156 (GNF / Scripps Winzeler lab, 2011).
# The source made the active and inactive calls. No rule for the calls is given here.
# Tested on: P. yoelii liver stage in HepG2-A16-CD81EGFP, imaging
# Test: Plasmodium liver-stage growth inhibition, dose response, imaging, Malaria Box, P. yoelii, HepG2-A16-CD81EGFP (AID 602156);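 also: infected cells exposed to compound for 48 hours before fixation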
row,Structure (SMILES),IC50
1,COc1ccc2nc(C)cc(Nc3ccc(Oc4ccc5ccccc5c4Cl)c(Cl)c3)c2c1,114 nM
2,CCOC(=O)C1=C(C)NC2=C(C(=O)C(C(=O)OCC)C(c3ccccc3OC)C2)C1c1cc(OC)c(OC)c(OC)c1 (stereo not drawn),509 nM
3,Brc1ccc(-c2c[n+]3c(n2-c2ccccc2)SCC3)cc1,828 nM
4,CC(c1nc2ccccc2c(=O)n1C)N1CCN(C(=O)C(C)(C)C)CC1 (stereo not drawn),492 nM
5,OCCNc1nc(Nc2ccccc2)nc2ccccc12,47.9 nM
6,CCOc1ccc(NC(=O)C(C)Sc2nc3ccccc3[nH]2)cc1 (stereo not drawn),> 10000 nM (inactive)
7,Oc1cccc2ccc(Nc3ccccn3)nc12,142 nM
8,CC(C)(C)OC(=O)N1CCC(c2c(C(=O)Nc3cccc(C(F)(F)F)c3)cnn2-c2ccc(F)cc2F)CC1,3120 nM
9,CCN1C(=O)N(CC)C(NNC(N)=S)C1NNC(N)=S (stereo not drawn),68.6 nM
10,O=c1c2c([nH]c3ccccc13)CCCCCC2,727 nM
11,CN(C)c1cc[n+](CC(=O)Nc2ccc(Cl)cc2)cc1,584 nM
12,Oc1c(C(Nc2ccccn2)c2cccc(Cl)c2Cl)ccc2cccnc12 (stereo not drawn),402 nM
13,CCCCCCOc1ccc(NC(=O)c2cccs2)cc1,139 nM
14,CCCCC(=O)NC(c1cccc([N+](=O)[O-])c1)c1ccc2cccnc2c1O (stereo not drawn),449 nM
15,CCOc1ccc2ncc(S(=O)(=O)c3ccc(OC)cc3)c(N3CCN(C)CC3)c2c1,10.7 nM
16,O=C(O)Cn1cnc2nc3n(c2c1=O)CCC3,> 765 nM (inactive)
17,CCCCOc1ccc(C2C3CCCC=C3C(C#N)=C(N)C2(C#N)C#N)cc1 (stereo not drawn),> 10000 nM (inactive)
18,CC(=O)N(C)C1=C(N2CCCC2)C(=O)c2ccccc2C1=O,4950 nM
19,COc1cccc(NC(=O)Cn2c(C)c(C#N)c3ccccc32)c1,> 9960 nM (inactive)
20,Cc1[nH]c2ccccc2c(=O)c1CC=C(Cl)Cl,130 nM
21,O=C1CC(c2ccccc2)CC2=C1C(c1ccccc1[N+](=O)[O-])Nc1ccccc1N2 (stereo not drawn),> 10000 nM (inactive)
22,CCN(CC)CCCNc1nc2cc(OC)c(OC)cc2c2nc(-c3ccccc3)nn12,327 nM

row,Structure (SMILES),IC50
1,COc1ccc(C2N(Cc3ccccc3)c3ccccc3N2Cc2ccccc2)cc1,121 nM
2,Cc1ccc(Nc2nc(NCc3ccccc3)c3ccccc3n2)cc1,278 nM
3,CCCc1ccc(C(=O)NC(=O)c2ccccc2O)cc1,4.18 nM
4,Cc1cccc2c1[nH]c1nc(SCC(C)C)nnc12,152 nM
5,Cc1cccc(N2C(N)=NC(N)=NC2(C)C)c1,4.25 nM
6,Cc1ccc(CSCc2ccc(C(=O)NC3CC3)o2)cc1,47.3 nM
7,C1CCC(NP2(NC3CCCCC3)=NP(NC3CCCCC3)(NC3CCCCC3)=NP(NC3CCCCC3)(NC3CCCCC3)=N2)CC1,18.6 nM
8,CC[n+]1c(/C=C/N(C)c2ccccc2)n(-c2ccccc2)c2ccc(-c3nc4ccccc4s3)cc21,14 nM
9,Cc1[nH]c2c(C)cccc2c(=O)c1CC=C(Cl)Cl,169 nM
10,COc1ccccc1-n1c(C=Cc2cc(Br)ccc2O)nc2ccccc2c1=O,4590 nM
11,c1ccc(Nc2ccnc(Nc3ccccc3)n2)cc1,1480 nM
12,COc1cccc(Nc2nc(NCCO)c3ccccc3n2)c1,62.3 nM
13,O=C(c1ccc2nc(N3CCCCC3)sc2c1)N1CCN(Cc2ccc3c(c2)OCO3)CC1,> 9220 nM (inactive)
14,CCOC(=O)c1ccc2[nH]c(-c3ccccc3)cc(=O)c2c1,20 nM
15,CCOC(=O)C1=C(C)NC2=C(C(=O)C(C(=O)OCC)C(c3cccc(OC)c3)C2)C1c1cc(OC)c(OC)c(OC)c1 (stereo not drawn),232 nM
16,CCc1noc(C)c1C(=O)NCCN1Cc2ccccc2OC(c2ccsc2)C1 (stereo not drawn),> 10000 nM (inactive)
17,O=c1c2c([nH]c3ccccc13)CCCC2,500 nM
18,Cc1nc([P+](c2ccccc2)(c2ccccc2)c2ccccc2)c(SCc2ccccc2)o1,33.5 nM
19,O=c1c2c(nc3cc(-c4ccc(Br)cc4)[nH]n13)CCCC2,499 nM
20,CC(=O)Nc1ccc(-c2nc(-c3ccc(Oc4ccc(-c5[nH]c(-c6ccc(NC(C)=O)cc6)nc5-c5ccccc5)cc4)cc3)c(-c3ccccc3)[nH]2)cc1,> 3730 nM (inactive)
21,CN1CCN(c2ccc(Nc3c4ccccc4nc4ccccc34)cc2)CC1,547 nM
22,O=C1C(Nc2ccc(O)cc2)=CC(=NS(=O)(=O)c2cccs2)c2ccccc21,85.6 nM

row,Structure (SMILES),IC50
1,CC(=O)N(C1=C(N2CCOCC2)C(=O)c2ccccc2C1=O)c1ccc(I)cc1,602 nM
2,O=C1C2=C(Nc3ccccc3SC2c2ccc(Br)cc2)c2ccccc21 (stereo not drawn),327 nM
3,N#Cc1c2c(c(N3CCN(c4ccccn4)CC3)n3c1nc1ccccc13)CCC2,> 10000 nM (inactive)
4,CC(=O)Nc1cccc(-c2cncc(-c3ccc(C(=O)O)cc3)n2)c1,> 10000 nM (inactive)
5,CC(C)NC(=O)c1cc(NC(=O)c2cccs2)ccc1N1CCc2ccccc2C1,74.8 nM
6,COC(=O)c1c(-c2c(Cl)cccc2Cl)noc1NC(=O)NN1CCCCC1,647 nM
7,CCc1ccccc1NC(C)=O,> 10000 nM (inactive)
8,CCOC(=O)CN(N=O)C1=C(N2CC2)C(=O)c2ccccc2C1=O,480 nM
9,Brc1ccc(Nc2nc(NCc3ccco3)c3ccccc3n2)cc1,163 nM
10,O=[N+]([O-])c1cccc(C(Nc2nccs2)c2ccc3cccnc3c2O)c1 (stereo not drawn),358 nM
11,CCN1CCN(c2cc(C)c3cc(NC(=O)c4cc(OC)cc(OC)c4)ccc3n2)CC1,3740 nM
12,O=C1Nc2ccccc2C12Nc1ccccc1-c1nc3ccccc3n12 (stereo not drawn),> 10000 nM (inactive)
13,CCCCC(CC)C(=O)N1CCN(C(CC)c2nc3ccccc3c(=O)n2C)CC1 (stereo not drawn),231 nM
14,Cc1cccc(NC(=S)NC2CC3CCCC(C2)N3CCc2ccccc2)c1 (stereo not drawn),277 nM
15,COc1ccc2[nH]c(=O)c(CN(C(=S)Nc3ccccc3OC)C3CCCC3)cc2c1,> 9740 nM (inactive)
16,c1ccc(-c2nn(-c3ccccc3)[n+](-c3ccccc3)n2)cc1,107 nM
17,O=C(Nc1ccc2oc(-c3cccc4ccccc34)nc2c1)c1ccc([N+](=O)[O-])o1,72.5 nM
18,CCOC(=O)c1c(NC(C)=O)sc2c1CCN(C(C)C)C2,3010 nM
19,CCC(C)(C)c1ccc(OCCCC[n+]2cccc(C)c2C)c(C(C)(C)CC)c1,45.5 nM
20,Cc1cn2c3ccccc3n(CCN3CCCC3)c2n1,1070 nM
21,CCCc1nc2ccc(NC(=O)c3ccccc3F)cc2c(=O)n1Cc1ccc(-c2ccccc2)cc1,1730 nM
22,N#Cc1c2c(c(N3CCN(Cc4ccccc4)CC3)n3c1nc1ccccc13)CCC2,> 10000 nM (inactive)

row,Structure (SMILES),IC50
1,Cc1oc2c(c1C(=O)NC1CCS(=O)(=O)C1)C(=O)c1ccccc1C2=O (stereo not drawn),2.29 nM
2,COc1ccccc1Nc1nc(NCc2ccccc2)c2ccccc2n1,91.3 nM
3,Cc1ncc(CCCCN(C)C)c2c1[nH]c1ccccc12,2770 nM
4,O=C(Cc1ccccc1)NC(c1ccc(Cl)cc1)c1ccc2cccnc2c1O (stereo not drawn),190 nM
5,Cc1ccc(S(=O)(=O)Nc2nc3n(n2)C(c2ccccc2)C=C(c2ccccc2)N3)cc1 (stereo not drawn),> 10000 nM (inactive)
6,C=CCc1c(C)[nH]c2ccc(Br)cc2c1=O,181 nM
7,CCCC[n+]1ccccc1C=C1Sc2ccccc2N1CC,10.9 nM
8,COc1ccccc1CNC(=O)c1nn(-c2ccc(Cl)cc2)c(=O)c2ccccc12,> 10000 nM (inactive)
9,CCCC1(CCC)NC(=S)N(c2ccc(C)c(C)c2)N1,> 10000 nM (inactive)
10,Cc1oc2c(c1C(=O)NCC1CCCO1)C(=O)c1ccccc1C2=O (stereo not drawn),189 nM
11,C/C=C/[P+](c1ccccc1)(c1ccccc1)c1ccccc1,49.4 nM
12,COc1cccc(NC(=O)c2ccc(NCCCN3CC(C)CC(C)C3)c([N+](=O)[O-])c2)c1 (stereo not drawn),437 nM
13,O=[N+]([O-])c1ccc(N2CCCN(C(=S)Nc3ccc(F)cc3Br)CC2)nc1,4620 nM
14,Fc1ccc2nc(Nc3nc(-c4ccccn4)cs3)sc2c1,43.8 nM
15,O=C(NC1CC1)C1CCN(c2cccc3c2C(=O)N(Cc2cccc(C(F)(F)F)c2)C3=O)CC1,29.3 nM
16,COc1ccc(Nc2cc(C)nc(NCc3ccccc3)n2)cc1,636 nM
17,O=C(c1cccc(Cl)c1)N1CCN(c2ccc([N+](=O)[O-])c(NC3CC3)c2)CC1,3200 nM
18,COc1ccc2nc(C)cc(Nc3ccc(Oc4ccc(Cl)c5ccccc45)c(Cl)c3)c2c1,267 nM
19,CCCC(=O)N1CCN(c2nc(Cc3ccccc3)c3c(c2C#N)CC(C)(C)OC3)CC1,348 nM
20,COc1ccc2nc(-c3ccccc3)cc(NCCN(C)C)c2c1,570 nM
21,CCCCCc1ccc(OCCCC[n+]2cccc(C)c2)c(CCCCC)c1,34.6 nM
22,CCCCN(CCCC)[P+](N(CCCC)CCCC)(N(CCCC)CCCC)N(CCCC)CCCC,11.5 nM

row,Structure (SMILES),IC50
1,c1ccc2c(NCCc3cnc[nH]3)c3ccccc3nc2c1,706 nM
2,Nc1ccc(N2CCCCCC2)cc1,1950 nM
3,CC(=O)Nc1nc(C)c(-c2csc(Nc3ccc(C)cc3)n2)s1,1890 nM
4,COc1ccc(C2CC(=O)C3=C(C2)NC(C)=C(C(=O)OC2CCCC2)C3c2ccc([N+](=O)[O-])cc2)cc1OC (stereo not drawn),3920 nM
5,CCOC(=O)c1c[nH]c2c3c(ccc2c1=O)CCCC3,10.8 nM
6,COc1ccc(C2CC(=O)C3=C(C2)NC(C)=C(C(=O)OC(C)C)C3c2ccccc2OC)cc1OC (stereo not drawn),> 10000 nM (inactive)
7,Cc1oc2c(c1C(=O)NCCCn1ccnc1)C(=O)c1ccccc1C2=O,119 nM
8,O=C(NC1CC1)c1ccc(CSCc2ccccc2Cl)o1,140 nM
9,O=C(c1cccs1)N1CCN(c2ccc([N+](=O)[O-])c(NC3CC3)c2)CC1,692 nM
10,CCOc1ccc(Nc2nc(NCc3ccco3)c3ccccc3n2)cc1,105 nM
11,CCCCOc1ccc(N(C(C)=O)C2=C(N3CCOCC3)C(=O)c3ccccc3C2=O)cc1,1790 nM
12,O=c1c2ccccc2[nH]c2ccc(I)cc12,105 nM
13,Clc1ccccc1-c1nc([P+](c2ccccc2)(c2ccccc2)c2ccccc2)c(N2CCOCC2)o1,95.6 nM
14,CN(C)c1oc(-c2ccc(Cl)cc2Cl)nc1[P+](c1ccccc1)(c1ccccc1)c1ccccc1,129 nM
15,OCCNc1nc(Nc2ccc(F)cc2)nc2ccccc12,136 nM
16,CCCN(C(=O)Nc1c(C(C)C)cccc1C(C)C)C(CC)c1nc2ccccc2c(=O)n1-c1cccc(C)c1 (stereo not drawn),6300 nM
17,CCOC(=O)c1c[nH]c2ccc(C(C)C)cc2c1=O,352 nM
18,CCN(CC)CCCC(C)Nc1c2ccc(Cl)cc2nc2ccc(OC)cc12 (stereo not drawn),166 nM
19,C[C@@H]1CCC[C@@H](C[C@H]2Cc3cc(O)cc(O)c3C(=O)O2)O1,112 nM
20,O=C(Nc1ccc(-c2ccc(Cl)cc2)cc1)c1cccs1,151 nM
